Measured values as given in patent publication US4695581A, “2-(3,5-dialkyl-4-hydroxyphenyl)indole derivatives” (Teikoku Hormone Mfg. Co., Ltd., priority 1984, dated 1987).
Where a name gives a salt, the structure may show the parent alone.

What was measured:
[1] = system: SRS-A-like active substance; assay: A23187-induced pleurisy; inhibition of formation of SRS-A-like active substance in pleural exudate; type: in vivo, rat (Wistar-strain, male, 11 weeks old); conditions: Rattus norvegicus, po, p.o., 60 minutes before intrapleural A23187, rats, vs solvent control, read-out: Inhibitory activity on the formation of SRS-A-like active substance
Experimental: (1) Preparation of A23187 -induced pleurisy Under ether anaesthesia, 0.2 ml of 100 μM A23187 (prepared by adding injectable distilled water in a 2 mM A23187 ethanol solution) was administered intrapleurally to rats (Wistar-strain, male, 11 weeks old). Twenty minutes after the administration, the rats were exsanguinated and the pleural exudate was harvested. […] (2) Measurement of SRS-A-like active substance To the exudate obtained in (1) was added 4 times its volume of ice-cooled ethanol. They were well mixed, and then centrifuged. […] The solution was added to SEP-PAK® (C18) and SRS-A-like active substance was partially purified. […] The residue was dissolved in purified water in an amount corresponding to the amount of the exudate. The SRS-A-like active substance was assayed on the basis of contraction of the ileum of guinea pig (Hartley-strain, male, body weight 400-500 g) in the presence of atropine and Pyrilamine. The presence of SRS-A was confirmed by the fact that the contraction of the isolated ileum by the test solution was antagonized by FPL-55712 which is a specific antagonist for SRS-A. The results are shown in the following table. The activity of inhibiting the formation of an SRS-A-like active substance is indicated as the percent inhibition based on a control group to which only the solvent was administered.

lipoxygenase = conditions: known from the prior art; cited from earlier work
cyclooxygenase = conditions: known from the prior art; cited from earlier work
SD-strain male rats = assay: Toxicity, oral administration, observation for 2 weeks; type: in vivo, rat (SD-strain; conditions: 5 g/kg, 10% gum arabic suspension, 5-membered groups
Source text: The test compound was suspended in a 10% gum arabic solution, and orally administered to SD-strain male rats (body weight 100-115 g) in 5-membered groups.

SRS-A = assay: Contraction of isolated guinea pig ileum by the test solution (confirmation of SRS-A); set-up: species or system guinea pig (Hartley-strain, male); conditions: in the presence of atropine and Pyrilamine
Experimental: The SRS-A-like active substance was assayed on the basis of contraction of the ileum of guinea pig (Hartley-strain, male, body weight 400-500 g) in the presence of atropine and Pyrilamine. The presence of SRS-A was confirmed by the fact that the contraction of the isolated ileum by the test solution was antagonized by FPL-55712 which is a specific antagonist for SRS-A.

Structure (SMILES) | inhibition at 10 mg/kg [1] [%] | further results
CCc1c(-c2cc(C)c(O)c(C)c2)[nH]c2ccc(OC)cc12 [Example 45, 3-ethyl-2-(4-hydroxy-3,5-dimethylphenyl)-5-methoxyindole] | 52.7 | –
CCN(CC)CCNc1ccc2[nH]c(-c3cc(C)c(O)c(C)c3)c(C)c2c1 [Example 38, 5-(2-diethylaminoethylamino)-2-(4-hydroxy-3,5-dimethylphenyl)-3-methylindole dihydrochloride] | 38.3 | –
NC1=NN(c2cccc(C(F)(F)F)c2)CC1 [BW755C, 3-amino-1-(3-trifluoromethylphenyl)-2-pyrazoline] | – | lipoxygenase inhibition (lipoxygenase): lipoxygenase inhibitors; cyclooxygenase inhibition (lack of specificity) (cyclooxygenase): lack specificity and inhibit not only lipoxygenase but also cyclooxygenase
Cc1cc(-c2[nH]c3c(C)cccc3c2C)cc(C)c1O [Example 16, 2-(4-Hydroxy-3,5-dimethylphenyl)-3,7-dimethylindole] | 37.5 | –
COc1ccc2[nH]c(-c3cc(C)c(O)c(C)c3)c(C)c2c1 [Example 1, 2-(4-hydroxy-3,5-dimethylphenyl)-5-methoxy-3-methylindole] | 66.2 | death (SD-strain male rats): No case of death was observed
CCc1cc(-c2[nH]c3ccccc3c2CC)cc(CC)c1O [Example 50, 3-ethyl-2-(3,5-diethyl-4-hydroxyphenyl)indole] | 21.5 | –
CCCc1c(OCC(O)COc2ccc3c(=O)cc(C(=O)O)oc3c2CCC)ccc(C(C)=O)c1O (centres unmarked) [FPL-55712] | – | antagonism of contraction of the isolated ileum (SRS-A): antagonized
CC(=O)Oc1ccc2[nH]c(-c3cc(C)c(O)c(C)c3)c(C)c2c1 [Example 37] | 43.7 | –
CSc1ccc2[nH]c(-c3cc(C)c(O)c(C)c3)c(C)c2c1 [Example 10, 2-(4-hydroxy-3,5-dimethylphenyl)-3-methyl-5-methylthioindole] | 41 | –
CCc1cc(-c2[nH]c3ccc(OC)cc3c2C)cc(CC)c1O [Example 48, 2-(3,5-diethyl-4-hydroxyphenyl)-5-methoxy-3-methylindole] | 28.3 | –
CCN(CC)CCOc1ccc2[nH]c(-c3cc(C)c(O)c(C)c3)c(C)c2c1 [Example 35, 5-(2-diethylaminoethoxy)-2-(4-hydroxy-3,5-dimethylphenyl)-3-methylindole] | 39.1 | –
CCc1cc(-c2[nH]c3ccccc3c2C)cc(CC)c1O [Example 46, 2-(3,5-diethyl-4-hydroxyphenyl)-3-methylindole] | 22.9 | inhibition at 30 mg/kg [1]: 74.2%
CCCOc1ccc2[nH]c(-c3cc(C)c(O)c(C)c3)c(C)c2c1 [Example 43, 2-(4-hydroxy-3,5-dimethylphenyl)-3-methyl-5-n-propoxyindole] | 46.2 | –
Cc1ccc2c(C)c(-c3cc(C)c(O)c(C)c3)[nH]c2c1 [Example 14, 2-(4-Hydroxy-3,5-dimethylphenyl)-3,6-dimethylindole] | 30.7 | –
CCCCCC#CCC#CCC#CCC#CCCCC(=O)O [5,8,11,14-eicosatetraynoic acid] | – | lipoxygenase inhibition (lipoxygenase): lipoxygenase inhibitors; cyclooxygenase inhibition (lack of specificity) (cyclooxygenase): lack specificity and inhibit not only lipoxygenase but also cyclooxygenase
COc1cc2[nH]c(-c3cc(C)c(O)c(C)c3)c(C)c2cc1OC [Example 24, 2-(4-Hydroxy-3,5-dimethylphenyl)-5,6-dimethoxy-3-methylindole] | 70.4 | –
Cc1ccc2[nH]c(-c3cc(C)c(O)c(C)c3)c(C)c2c1 [Example 5, 2-(4-Hydroxy-3,5-dimethylphenyl)-3,5-dimethylindole] | 54.7 | –
Cc1cc(-c2[nH]c3ccc(N)cc3c2C)cc(C)c1O [Example 33, 5-amino-2-(4-hydroxy-3,5-dimethylphenyl)-3-methylindole] | 68.1 | –
Cc1cc(-c2[nH]c3ccccc3c2C)cc(C)c1O [Example 30, 2-(4-hydroxy-3,5-dimethylphenyl)-3-methylindole] | 58 | inhibition at 30 mg/kg [1]: 90.2%
Cc1cc(-c2[nH]c3ccc(OCc4ccccc4)cc3c2C)cc(C)c1O [Example 36, 5-benzyloxy-2-(4-hydroxy-3,5-dimethylphenyl)-3-methylindole] | 35.4 | –
CCc1c(-c2cc(C)c(O)c(C)c2)[nH]c2ccccc12 [Example 44, 3-ethyl-2-(4-hydroxy-3,5-dimethylphenyl)indole] | 46.9 | inhibition at 30 mg/kg [1]: 87.2%
Cc1cc(-c2[nH]c3ccc(OC(C)C)cc3c2C)cc(C)c1O [Example 9, 2-(4-Hydroxy-3,5-dimethylphenyl)-3-methyl-5-isopropoxyindole] | 58.4 | –
CCOc1ccc2[nH]c(-c3cc(C)c(O)c(C)c3)c(C)c2c1 [Example 8, 5-Ethoxy-2-(4-hydroxy-3,5-dimethylphenyl)-3-methylindole] | 28.7 | –
